Laboratory results from article PMC7995547, “ω‐Imidazolyl‐alkyl derivatives as new preclinical drug candidates for treating non‐alcoholic steatohepatitis” (Physiological Reports, 2021).
Several values for one entry are separate records, joined by “and”; a condition that tells them apart may be missing. Equal values may be shown once.

What was measured:
[1] = tested on: HFD‐induced NASH rat model (liver and serum); experiment: End products of fat metabolism (liver and serum lipids), NASH rat model; format: in vivo, Wistar rats; settings: for Decrease in liver triglyceride levels compared to disease group / Reduction of the effect of HFD on liver triglyceride levels: average over doses (I‐ol, I‐an); for Decrease in liver triglyceride levels compared to disease group / Reduction of the effect of HFD on liver triglyceride levels / Decrease in liver phospholipid levels compared to disease group / Decrease in serum LDL cholesterol / Decrease in serum triglyceride levels compared to disease group: UDCA 40 mg/kg b.w.
Protocol: (§1) Studies were done using Wistar rats of female sex by the Institute of Pharmacology and Biochemistry at Minsk. The animals were 80–90 days old and weighed 180–200 g. They had free access to a liquid Lieber‐DeCarli (LDC) diet (Lieber et al., 2004) and were housed under standard conditions meaning a 12‐h light/dark cycle at 22 ± 2°C and 55 ± 5% humidity.
(§2) Group 1 was designated as the first control group; it was fed a normal standard solid diet. Group 2, as the second control group, was fed a standard amount of fat as a part of the liquid “physiological,” non‐high fat LDC diet. All other groups received the liquid ‘disease‐causing’ LDC diet (Table 2), including a high content of unsaturated fatty acids.
(§3) Both LDC diets were in a liquid form as produced by ssniff‐Spezialdiäten GmbH, Soest (Germany). The feed was provided over the entire experimental period of 16 weeks; however, the corresponding experimental substances were only administered in the last four weeks (Figure 3).
(§4) The experimental substances I‐ol, I‐an, and UDCA were dissolved in a 0.8% aqueous HPMC gel to obtain the following concentrations: (1) I‐ol at 0.4, 4, and 40 mg/kg body weight (b.w.), (2) I‐an at 0.4, 4, and 40 mg/kg b.w., and (3) UDCA at 40 mg/kg b.w. The Group‐2 and −3 rats received only HPMC as placebo. Each test encompassed 6–8 rats that were put up in a separate cage. The rats were fed ad libitum, and their intake per cage was controlled daily. In order to ensure an exact daily reproducible dosage, the experimental substances or only HPMC was administered intragastrically via oral gavage. Basically, the drug therapy of a chronic disease is the more efficient the higher the adherence of the affected patients. This is generally higher with peroral administration than with any other form of application. At the end of the experiment, the animals were sacrificed under fasting conditions, by aorta dissection and exsanguination, after anesthetizing with an intraperitoneal injection of 5% pentobarbital solution.
(§5) The activities of the liver enzymes aspartate aminotransferase (AST), alanine aminotransferase (ALT), alkaline phosphatase (AP), and γ‐glutamyl transferase (γ‐GT) as well as bilirubin and triglyceride levels in the serum were determined as described by the instructions of BIO‐LA‐tests kit (Erba Lachema, Brno, Czech Republic).
Extraction of lipids was performed using a solvent composed of chloroform and methanol (2:1 v/v). Thin‐layer chromatography (TLC) was used to separate off neutral lipids and phospholipids. Silicagel G 60 plates (0.25 mm thick) were used. The lipids were separated by ascending chromatography in a system composed of hexane:diethylic ether:glacial acetic acid (73:25:2; v/v/v). They were visualized by iodine vapor and the spots corresponding to triglycerides and cholesterol were scraped off and eluted with methanol for spectrophotometric evaluation. Triglyceride and cholesterol levels were determined using the BIO‐LA‐test kit (Erba Lachema, Brno, Czech Republic). Phospholipid concentration was determined by measuring the levels of phosphomolybdate using an inorganic phosphate reagent containing molybdate (Findlay & Evans, 1987). VLDL level was determined by using the manganese precipitation method (Burstein & Scholnick, 1973) after partial modification (Hirano et al., 2003).

[2] = tested on: HFD‐induced NASH rat model (serum); experiment: Adipocytokines and glucose metabolism in serum, NASH rat model; format: in vivo, Wistar rats; settings: for Decrease in serum TNF‐α level compared to disease group / Decrease in serum leptin compared to disease group / Increase in serum adiponectin compared to disease group / Reduction of the effect of HFD on serum adiponectin / Reduction of the effect of HFD on serum leptin: average over doses (I‐ol, I‐an); for Reduction of the effect of HFD on serum adiponectin: UDCA 40 mg/kg b.w. (elevated the concentration by); for Reduction of the effect of HFD on serum leptin: UDCA 40 mg/kg b.w. (reduced leptin concentration); for Serum leptin above the reference value of control group 1: highest concentrations (40 mg/kg b.w.)
Protocol: as §1, §2, §3, §4
The concentrations of adiponectin and TNFα were measured using ELISA kits sold by BioCat GmbH (Heidelberg, Germany), whereas the one for determining leptin level was procured from BioVendor Laboratory Medicine Inc. (Brno, Czech Republic). Insulin concentration was determined using the radioimmunoassay kit RIO‐insulin‐PG‐J125 (IBOCH, Minsk, Belarus). Serum glucose level was determined based on the “Accu‐Check Active blood glucose” monitoring method developed by Roche‐Diagnostics.

[3] = tested on: HFD‐induced NASH rat model (serum); experiment: Liver enzyme activities and bilirubin in serum, NASH rat model; format: in vivo, Wistar rats; settings: for Decrease in serum bilirubin level compared to disease group / Decrease in γ‐GT enzymatic activity compared to disease group / Reduction of the effect of HFD on γ‐GT activity: UDCA 40 mg/kg b.w.; for Decrease in γ‐GT enzymatic activity compared to disease group / Reduction of the effect of HFD on γ‐GT activity: average over doses (I‐ol, I‐an); for Decrease in ALT enzymatic activity compared to disease group / Reduction of the effect of HFD on ALT activity: highest concentrations (40 mg/kg b.w.); for Reduction of the effect of HFD on ALT activity: b87: dose not stated; for Decrease in AP enzymatic activity compared to disease group / Decrease in AST enzymatic activity compared to disease group: number: highest concentration (40 mg/kg b.w.), words: compound overall
Protocol: as §1, §2, §3, §4, §5

[4] = tested on: HFD‐induced NASH rat model (liver); experiment: Liver histopathology, semi‐quantitative evaluation, NASH rat model; format: in vivo, Wistar rats; design: key to Steatosis score / Balooning score: 0, none; 1, ≤25%; 2, 26–50%; 3, ≥51–75% of liver parenchyma; settings: for Balooning score / Inflammation score / Steatosis score: H.E.‐stained liver slices
Protocol: as §1, §2, §3, §4
Pieces of liver tissue measuring 1 × 2 × 0.5 mm were chosen randomly and fixed for a week in the mixture of 1% formaldehyde and 1% paraformaldehyde in Sorensen's phosphate buffer (pH 7.4) (Morphisto GmbH, Frankfurt/Main). After this the pieces were kept in 2.5% glutaraldehyde in same buffer, rinsed and then post‐fixed in 1% solution of osmium tetroxide on the Sorensen's phosphate buffer (pH 7.4). After fixation, the liver samples were dehydrated and embedded in the pre‐polymerized mixture of methyl methacrylate and butyl methacrylate (1:4, v/v) containing 2,4‐dichlorbenzoyl peroxide as a catalyst.
[…] A semi‐quantitative evaluation of the sections was performed according to the procedure described by Koppe et al. (Koppe et al., 2004).

[5] = tested on: CYP2E1; design: method as in Diesinger et al., 2020; settings: ref Diesinger et al., 2020, cited from earlier work; for Inhibition of CYP2E1 (in words): in vitro experiments
[6] = highest concentration (40 mg/kg b.w.)
[7] = serum, highest concentration (40 mg/kg b.w.)

CCCCCCCCCCCCn1ccnc1 [I‐an, 1‐imidazolyldodecane]
Dose dependence of the effect on liver phospholipid levels ([1]; 0.4, 4, 40 mg/kg b.w.): strong and very highly significant (p < 0.001), linear, dose‐dependent effect
Reduction of the effect of HFD on liver phospholipid levels ([1]; average over doses): 53%
Serum triglyceride level below the reference value of group 1 ([1]; average over doses): 4%
Decrease in liver triglyceride levels compared to disease group [1]: 15%
Reduction of the effect of HFD on liver triglyceride levels [1]: 33%
Decrease in liver phospholipid levels compared to disease group ([1]; average over doses): 13%
Decrease in serum LDL cholesterol ([1]; average over doses): non‐significant trend toward lowering the serum LDL level
Decrease in serum triglyceride levels compared to disease group ([1]; average over doses): 12%
Liver phospholipid level above the reference value of group 1 [1, 6]: 3%
Liver cholesterol level below the reference value of group 1 ([1]; low dose (0.4 mg/kg b.w.)): 8%
Reduction of liver cholesterol level compared to disease group ([1]; low dose (0.4 mg/kg b.w.)): 18%
Dose dependence of the effect on serum adiponectin ([2]; 0.4, 4, 40 mg/kg b.w.): weak, significant (p < 0.05) linear dose‐dependent effect
Dose dependence of the effect on serum leptin ([2]; 0.4, 4, 40 mg/kg b.w.): weak yet significant (p < 0.05) linear dose‐dependent effect
Decrease in serum TNF‐α level compared to disease group ([2]; UDCA 40 mg/kg b.w.): not significant
Decrease in serum leptin compared to disease group ([2]; UDCA 40 mg/kg b.w.): 18%
Increase in serum adiponectin compared to disease group ([2]; UDCA 40 mg/kg b.w.): 31%
Reduction of the effect of HFD on serum adiponectin [2]: 38%
Reduction of the effect of HFD on serum leptin [2]: 62%
Serum leptin above the reference value of control group 1 [2]: 1%
Dose dependence of the effect on ALT activity ([3]; 0.4, 4, 40 mg/kg b.w.): weak, significant (p < 0.05), linear, dose‐dependent effect
Dose dependence of the effect on AP activity ([3]; 0.4, 4, 40 mg/kg b.w.): weak but significant (p < 0.05), linear, dose‐dependent effect
Dose dependence of the effect on AST activity ([3]; 0.4, 4, 40 mg/kg b.w.): moderate, very highly significant (p < 0.001), linear, dose‐dependent effect
Decrease in serum bilirubin level compared to disease group ([3]; average over doses): no therapeutic effect
Decrease in γ‐GT enzymatic activity compared to disease group ([3]; serum): 35%
Reduction of the effect of HFD on γ‐GT activity ([3]; serum): 86%
Reduction of the effect of HFD on AP activity [3, 7]: 89%
Reduction of the effect of HFD on AST activity [3, 7]: 92% and 90%
Decrease in ALT enzymatic activity compared to disease group ([3]; serum): 20%
Reduction of the effect of HFD on ALT activity ([3]; serum): 66% and ~70%
Decrease in AP enzymatic activity compared to disease group ([3]; serum): 21%
Decrease in AST enzymatic activity compared to disease group ([3]; serum): 21%
Balooning score ([4]; 0.4 mg/kg b.w. + HFD): 0–1
Inflammation score ([4]; 0.4 mg/kg b.w. + HFD): 1 (1, <5 signs of inflammation)
Steatosis score ([4]; 0.4 mg/kg b.w. + HFD): 0–1
Balooning score ([4]; 4.0 mg/kg b.w. + HFD): 1 (1, ≤25%)
Inflammation score ([4]; 4.0 mg/kg b.w. + HFD): 1 (1, <5 signs of inflammation)
Steatosis score ([4]; 4.0 mg/kg b.w. + HFD): 0–1
Balooning score ([4]; 40.0 mg/kg b.w. + HFD): 0–1
Inflammation score ([4]; 40.0 mg/kg b.w. + HFD): 1 (1, <5 signs of inflammation)
Steatosis score ([4]; 40.0 mg/kg b.w. + HFD): 0–1
Inhibition of CYP2E1 (in words) [5]: strong inhibitors of CYP2E1

OCCCCCCCCCCCCn1ccnc1 [I‐ol, 12‐imidazolyl‐1‐dodecanol]
Serum LDL cholesterol below the reference value of group 1 ([1]; average over doses): 11%
Decrease in liver triglyceride levels compared to disease group [1]: 18%
Reduction of the effect of HFD on liver triglyceride levels [1]: 41%
Decrease in liver phospholipid levels compared to disease group ([1]; average over doses): no therapeutic effect
Decrease in serum LDL cholesterol ([1]; average over doses): 28%
Decrease in serum triglyceride levels compared to disease group ([1]; average over doses): no therapeutic effect
Reduction of serum VLDL level ([1]; medium concentration (4 mg/kg b.w.)): 19%
Liver cholesterol level below the reference value of group 1 ([1]; medium dose (4 mg/kg b.w.)): 7%
Reduction of liver cholesterol level compared to disease group ([1]; medium dose (4 mg/kg b.w.)): 17%
Reduction of the effect of HFD on serum TNF‐α level ([2]; average over doses (I‐ol), UDCA 40 mg/kg b.w.): 66%
Decrease in serum TNF‐α level compared to disease group ([2]; UDCA 40 mg/kg b.w.): 49%
Decrease in serum leptin compared to disease group ([2]; UDCA 40 mg/kg b.w.): 22%
Increase in serum adiponectin compared to disease group ([2]; UDCA 40 mg/kg b.w.): 64%
Reduction of the effect of HFD on serum adiponectin [2]: 78%
Reduction of the effect of HFD on serum leptin [2]: 75%
Serum adiponectin above the reference value of control group 1 [2, 6]: 4%
Serum leptin above the reference value of control group 1 [2]: 3%
Dose dependence of the effect on γ‐GT activity ([3]; 0.4, 4, 40 mg/kg b.w.): moderate but very highly significant (p < 0.001), linear, dose‐dependent effect
Serum bilirubin below the levels measured in the disease group and the two control groups ([3]; average over doses): more than 10%
Decrease in serum bilirubin level compared to disease group ([3]; average over doses): 14%
Decrease in γ‐GT enzymatic activity compared to disease group ([3]; serum): 34%
Reduction of the effect of HFD on γ‐GT activity ([3]; serum): 84%
Decrease in ALT enzymatic activity compared to disease group ([3]; serum): 16%
Reduction of the effect of HFD on ALT activity ([3]; serum): 55% and ~70%
Decrease in AP enzymatic activity compared to disease group ([3]; serum): no therapeutic effect
Decrease in AST enzymatic activity compared to disease group ([3]; serum): no therapeutic effect
Balooning score ([4]; 0.4 mg/kg b.w. + HFD): 1 (1, ≤25%)
Inflammation score ([4]; 0.4 mg/kg b.w. + HFD): 1–2
Steatosis score ([4]; 0.4 mg/kg b.w. + HFD): 0–1
Balooning score ([4]; 4.0 mg/kg b.w. + HFD): 1 (1, ≤25%)
Inflammation score ([4]; 4.0 mg/kg b.w. + HFD): 1 (1, <5 signs of inflammation)
Steatosis score ([4]; 4.0 mg/kg b.w. + HFD): 0
Balooning score ([4]; 40.0 mg/kg b.w. + HFD): 1 (1, ≤25%)
Inflammation score ([4]; 40.0 mg/kg b.w. + HFD): 1 (1, <5 signs of inflammation)
Steatosis score ([4]; 40.0 mg/kg b.w. + HFD): 0–1
Effect on liver histology (in words) ([4]; animals with NASH (HFD)): dose‐dependent reduction of the pathological signs
Inhibition of CYP2E1 (in words) [5]: strong inhibitors of CYP2E1
Binding strength to CYP2E1 (rank) [5]: highest affinity
